Here are results for 28 compounds from patent publication US9067871B2, “Aminotetraline derivatives, pharmaceutical compositions containing them, and their use in therapy” (ABBVIE DEUTSCHLAND GMBH & CO KG, priority 2009, dated 2015).

Structures can show the parent of a compound that is named as a salt. Where two headings read alike, the source gives them in different places. A value given as a limit tells only on which side of the number the result lay.

The target in one experiment is human GlyT1c (Homo sapiens (Human), UniProt P48067). Nature of the experiment: [3H]-Glycine uptake into recombinant CHO cells expressing human GlyT1. The class given is cell-based. Conditions: hGlyT1c_5_CHO cells, 200 nM [3H]-glycine. Here is the method: 1. [^3H]-Glycine uptake into recombinant CHO cells expressing human GlyT1: Human GlyT1c expressing recombinant hGlyT1c—5_CHO cells were plated at 20,000 cells per well in 96 well Cytostar-T scintillation microplates (Amersham Biosciences) and cultured to sub-confluency for 24 h. […] 80 μl HBSS buffer were added, followed by 10 μl inhibitor or vehicle (10% DMSO) and 10 μl [^3H]-glycine (TRK71, Amersham Biosciences) to a final concentration of 200 nM for initiation of glycine uptake. The plates were placed in a Wallac Microbeta (PerkinElmer) and continuously counted by solid phase scintillation spectrometry during up to 3 hours. Nonspecific uptake was determined in the presence of 10 μM Org24598.
Chain of human GlyT1c (P48067 whole entry): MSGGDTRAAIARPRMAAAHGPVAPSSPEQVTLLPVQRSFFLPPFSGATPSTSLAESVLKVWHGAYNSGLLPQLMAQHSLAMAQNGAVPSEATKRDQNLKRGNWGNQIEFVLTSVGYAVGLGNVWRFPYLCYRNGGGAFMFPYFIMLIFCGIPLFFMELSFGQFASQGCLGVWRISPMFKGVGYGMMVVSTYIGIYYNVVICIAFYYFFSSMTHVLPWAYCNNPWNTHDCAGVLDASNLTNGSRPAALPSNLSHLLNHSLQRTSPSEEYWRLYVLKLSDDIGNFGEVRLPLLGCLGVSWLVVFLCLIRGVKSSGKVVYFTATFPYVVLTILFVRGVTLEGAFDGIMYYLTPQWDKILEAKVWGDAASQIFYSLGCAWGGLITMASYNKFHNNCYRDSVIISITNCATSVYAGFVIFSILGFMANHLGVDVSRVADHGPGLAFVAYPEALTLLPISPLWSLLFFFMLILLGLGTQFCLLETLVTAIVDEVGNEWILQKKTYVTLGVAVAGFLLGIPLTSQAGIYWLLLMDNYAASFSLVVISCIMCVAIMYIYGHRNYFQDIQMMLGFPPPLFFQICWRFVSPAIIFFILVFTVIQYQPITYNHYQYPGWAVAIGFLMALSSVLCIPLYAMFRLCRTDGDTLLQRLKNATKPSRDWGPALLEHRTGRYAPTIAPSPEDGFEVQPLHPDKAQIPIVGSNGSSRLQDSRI

In a further experiment the target is human GlyT1c transporter (Homo sapiens (Human), UniProt P48067). Nature of the experiment: Radioligand binding assay using recombinant CHO cell membranes expressing human GlyT1. Conditions: human GlyT1c-expressing CHO cell membranes, read-out: radioligand binding Kiapp. The source says: 2. Radioligand binding assays using recombinant CHO cell membranes expressing human GlyT1: […]
Chain of human GlyT1c transporter (P48067 whole entry): as above

`CCOC(=O)NC1CCc2ccc(OCCNS(=O)(=O)c3cnn(C)c3)cc2C1Cc1ccc(Cl)cc1Cl` (stereo not drawn) [Example 62, {1-(2,4-Dichloro-benzyl)-7-[2-(1-methyl-1H-pyrazole-4-sulfonylamino)-ethoxy]-1,2,3,4-tetrahydro-naphthalen-2-yl}-carbamic acid ethyl ester]: the IC50 at human GlyT1c was at most 1000 µM. At human GlyT1c transporter, the Ki is at most 10 µM. On to `NC1CCc2ccc(OCCNS(=O)(=O)C3CCNC3)cc2C1Cc1ccc(Cl)c(Cl)c1` (stereo not drawn) [Example 19, Pyrrolidine-3-sulfonic acid {2-[7-amino-8-(3,4-dichloro-benzyl)-5,6,7,8-tetrahydronaphthalen-2-yloxy]-ethyl}-amide hydrochloride], for which the concentration for half-maximal inhibition (IC50) at human GlyT1c was at most 100 µM. Also, on human GlyT1c transporter, the Ki is at most 10 µM. Regarding `CCNC1CCc2ccc(CCCNS(=O)(=O)CC3CC3)cc2C1Cc1ccccc1` (stereo not drawn) [Example 224, N-{3-[8-Benzyl-7-(ethylamino)-5,6,7,8-tetrahydronaphthalen-2-yl]propyl}-1-cyclopropylmethanesulfonamide hydrochloride], the Ki on human GlyT1c transporter is at most 0.1 µM.

Consider `CCCS(=O)(=O)N1CC(c2ccc3c(c2)C(Cc2ccccc2)C(N)CC3)C1` (stereo not drawn) [Example 284, 1-Benzyl-7-[1-(propane-1-sulfonyl)-azetidin-3-yl]-1,2,3,4-tetrahydro-naphthalen-2-ylamine hydrochloride], for which the Ki on human GlyT1c transporter is at most 1 µM.

`CNC1CCc2ccc(OCCNS(=O)(=O)CC3CC3)cc2C1Cc1cc(F)cc(Cl)c1` (stereo not drawn) [Example 158, N-(2-{[8-(3-Chloro-5-fluorobenzyl)-7-(methylamino)-5,6,7,8-tetrahydronaphthalen-2-yl]oxy}ethyl)-1-cyclopropylmethanesulfonamide hydrochloride]: the Ki on human GlyT1c transporter is at most 0.01 µM. `O=S(=O)(CC1CC1)NCCOc1ccc2c(c1)C(Cc1cccc(Cl)c1)C(N1CCC1)CC2` (stereo not drawn) [Example 320, N-{2-[7-Azetidin-1-yl-8-(3-chloro-benzyl)-5,6,7,8-tetrahydro-naphthalen-2-yloxy]-ethyl}-C-cyclopropyl-methanesulfonamide]: the Ki on human GlyT1c transporter is at most 0.1 µM. `CNC1CCc2ccc(OCCNS(=O)(=O)CC3CC3)cc2C1Cc1cc(F)cc(F)c1` (stereo not drawn) [Example 243, 1-Cyclopropyl-N-(2-{[8-(3,5-difluorobenzyl)-7-(methylamino)-5,6,7,8-tetrahydronaphthalen-2-yl]oxy}ethylmethanesulfonamide hydrochloride]: the Ki on human GlyT1c transporter was at most 0.01 µM.

Regarding `O=S(=O)(CC1CC1)NCCOc1ccc2c(c1)C(Cc1ccccc1)C(N1CCC1)CC2` (stereo not drawn) [Example 142, N-(2-{[7-(Azetidin-1-yl)-8-benzyl-5,6,7,8-tetrahydronaphthalen-2-yl]oxy}ethyl)-1-cyclopropylmethanesulfonamide hydrochloride], the Ki on human GlyT1c transporter (hydrochloride) is at most 0.1 µM.

Turning to `NC1CCc2ccc(OCCNC(=O)c3ccccc3)cc2C1Cc1ccc(Cl)c(Cl)c1` (stereo not drawn) [Example 123, N-(2-{[7-Amino-8-(3,4-dichlorobenzyl)-5,6,7,8-tetrahydronaphthalen-2-yl]oxy}ethyl)benzamide hydrochloride], the Ki on human GlyT1c transporter was at most 10 µM.

Consider `NC1CCc2ccc(OCCNS(=O)(=O)CC3CCC3)cc2C1Cc1ccc(Cl)c(Cl)c1` (stereo not drawn) [Example 106, N-{2-[7-Amino-8-(3,4-dichloro-benzyl)-5,6,7,8-tetrahydro-naphthalen-2-yloxy]-ethyl}-Ccyclobutyl-methanesulfonamide hydrochloride], for which, on human GlyT1c transporter, the Ki is at most 1 µM. In the case of `Cn1cnc(S(=O)(=O)NCc2ccc3c(c2)C(Cc2ccccc2)C(N2CCCC2=O)CC3)c1` (stereo not drawn) [Example 263, N-{[8-Benzyl-7-(2-oxopyrrolidin-1-yl)-5,6,7,8-tetrahydronaphthalen-2-yl]methyl}-1-methyl-1H-imidazole-4-sulfonamide], the Ki at human GlyT1c transporter was at most 1 µM. In the case of `CCCS(=O)(=O)NCCCc1ccc2c(c1)C(Cc1ccc(F)c(F)c1)C(NCC)CC2` (stereo not drawn) [Example 225, N-{3-[8-(3,4-Difluorobenzyl)-7-(ethylamino)-5,6,7,8-tetrahydronaphthalen-2-yl]propyl}propane-1-sulfonamide trifluoroacetate], the Ki on human GlyT1c transporter is at most 0.1 µM. Still for that read-out and setting: to `O=S(=O)(CC1CC1)NCCOc1ccc2c(c1)C(Cc1ccc(Cl)c(Cl)c1)C(N1CCC1)CC2` (stereo not drawn) [Example 135, N-(2-{[7-(Azetidin-1-yl)-8-(3,4-dichlorobenzyl)-5,6,7,8-tetrahydronaphthalen-2-yl]oxy}ethyl)-1-cyclopropylmethanesulfonamide] belongs at most 0.1 µM. As for `CCCS(=O)(=O)NCCOc1ccc2c(c1)C(Cc1ccccc1)C(N1CCC1)CC2` (stereo not drawn) [Example 148, Propane-1-sulfonic acid [2-(7-azetidin-1-yl-8-benzyl-5,6,7,8-tetrahydro-naphthalen-2-yloxy)-ethyl]-amide], the Ki at human GlyT1c transporter was at most 0.1 µM. As for `Cn1cc(S(=O)(=O)NCc2ccc3c(c2)C(Cc2ccccc2)C(N2CCC2)CC3)cn1` (stereo not drawn) [Example 250, N-{[7-(Azetidin-1-yl)-8-benzyl-5,6,7,8-tetrahydronaphthalen-2-yl]methyl}-1-methyl-1H-pyrazole-4-sulfonamide], the Ki on human GlyT1c transporter is at most 0.01 µM. Regarding `CN(CCCc1ccc2c(c1)C(Cc1cccc(F)c1)C(N)CC2)S(=O)(=O)CC1CC1` (stereo not drawn) [Example 230, N-{3-[7-Amino-8-(3-fluorobenzyl)-5,6,7,8-tetrahydronaphthalen-2-yl]propyl}-1-cyclopropylN-methylmethanesulfonamide hydrochloride], the Ki at human GlyT1c transporter is at most 0.01 µM. As to `CCCS(=O)(=O)NCCOc1ccc2c(c1)C(Cc1ccc(F)c(Cl)c1)C(N)CC2` (stereo not drawn) [Example 120, N-(2-{[7-Amino-8-(3-chloro-4-fluorobenzyl)-5,6,7,8-tetrahydronaphthalen-2-yl]oxy}ethyl)propane-1-sulfonamide hydrochloride], the Ki on human GlyT1c transporter was at most 0.1 µM. Take `CN(CCOc1ccc2c(c1)C(Cc1ccc(Cl)c(Cl)c1)C(N1CCCC1)CC2)S(=O)(=O)c1cnn(C)c1` (stereo not drawn) [Example 89, 1-Methyl-1H-pyrazole-4-sulfonic acid {2-[8-(3,4-dichloro-benzyl)-7-pyrrolidin-1-yl-5,6,7,8-tetrahydro-naphthalen-2-yloxy]-ethyl}-methyl-amide hydrochloride]: the Ki at human GlyT1c transporter is at most 0.1 µM. Regarding `NC1CCc2ccc(OCCNS(=O)(=O)CCC(F)(F)F)cc2C1Cc1ccccc1` (stereo not drawn) [Example 100, 3,3,3-Trifluoro-propane-1-sulfonic acid [2-(7-amino-8-benzyl-5,6,7,8-tetrahydronaphthalen-2-yloxy)-ethyl]amide hydrochloride], the Ki on human GlyT1c transporter (hydrochloride) is at most 1 µM. On to `O=S(=O)(CC1CC1)NCCOc1ccc2c(c1)C(Cc1ccccc1)C(N1CCC1)CC2` (single isomer, unassigned; (-)) [Example 143, (−)-N-(2-(7-(azetidin-1-yl)-8-benzyl-5,6,7,8-tetrahydronaphthalen-2-yloxy)ethyl)-1-cyclopropylmethanesulfonamide], for which, on human GlyT1c transporter, the Ki was at most 0.01 µM.

On to `CCCS(=O)(=O)NCCCc1ccc2c(c1)C(Cc1ccccc1)C(NCC)CC2` (stereo not drawn) [Example 223, N-{3-[8-Benzyl-7-(ethylamino)-5,6,7,8-tetrahydronaphthalen-2-yl]propyl}propane-1-sulfonamide hydrochloride], for which the Ki at human GlyT1c transporter was at most 0.1 µM. For the compound `CCCS(=O)(=O)NCCc1ccc2c(c1)C(Cc1cccc(Cl)c1)C(N)CC2` (stereo not drawn) [Example 304, Propane-1-sulfonic acid {2-[7-amino-8-(3-chloro-benzyl)-5,6,7,8-tetrahydro-naphthalen-2-yl]-ethyl}-amide hydrochloride], the Ki on human GlyT1c transporter is at most 1 µM.

As for `Cn1cc(S(=O)(=O)NCc2ccc3c(c2)C(Cc2ccccc2)C(N2CCC2)CC3)cn1` (single isomer, unassigned; enantiomer 1) [Example 254, Enantiomer 1 of N-{[7-(azetidin-1-yl)-8-benzyl-5,6,7,8-tetrahydronaphthalen-2-yl]methyl}-1-methyl-1H-pyrazole-4-sulfonamide], the Ki on human GlyT1c transporter is at most 0.01 µM.

In the case of `Cn1cc(S(=O)(=O)NCCOc2ccc3c(c2)C(Cc2ccccc2Cl)C(N)CC3)cn1` (stereo not drawn) [Example 301, 1-Methyl-1H-pyrazole-4-sulfonic acid {2-[7-amino-8-(2-chloro-benzyl)-5,6,7,8-tetrahydronaphthalen-2-yloxy]-ethyl}-amide hydrochloride], on human GlyT1c transporter, the Ki was at most 0.01 µM. `CCN(CCOc1ccc2c(c1)C(Cc1ccccc1)C(N1CCCC1)CC2)S(=O)(=O)c1cnn(C)c1` (stereo not drawn) [Example 124, N-(2-{[8-Benzyl-7-(pyrrolidin-1-yl)-5,6,7,8-tetrahydronaphthalen-2-yl]oxy}ethyl)-N-ethyl-1-methyl-1H-pyrazole-4-sulfonamide hydrochloride]: the Ki at human GlyT1c transporter was at most 1 µM. The same measure, in the same setting: the value for `N#Cc1cccc(CC2c3cc(OCCNS(=O)(=O)CC4CC4)ccc3CCC2N2CCCC2)c1` (stereo not drawn) [Example 155, N-(2-{[8-(3-Cyanobenzyl)-7-(pyrrolidin-1-yl)-5,6,7,8-tetrahydronaphthalen-2-yl]oxy}ethyl)-1-cyclopropylmethanesulfonamide hydrochloride] was at most 1 µM. On to `CCCS(=O)(=O)NCCCc1ccc2c(c1)C(Cc1cccc(Cl)c1)C(N1CCCC1)CC2` (stereo not drawn) [Example 264, N-{3-[8-(3-Chlorobenzyl)-7-(pyrrolidin-1-yl)-5,6,7,8-tetrahydronaphthalen-2-yl]propyl}propane-1-sulfonamide hydrochloride], for which the Ki at human GlyT1c transporter was at most 1 µM. As for `O=S(=O)(CC1CC1)NCCOc1ccc2c(c1)C(Cc1ccc(Cl)c(Cl)c1)C(N1CCCC1)CC2` (stereo not drawn) [Example 132, C-Cyclopropyl-N-{2-[8-(3,4-dichloro-benzyl)-7-pyrrolidin-1-yl-5,6,7,8-tetrahydronaphthalen-2-yloxy]-ethyl}-methanesulfonamide hydrochloride], the Ki at human GlyT1c transporter was at most 0.1 µM.

In general, IC50 refers to the concentration at which inhibition is half-maximal.
